Measurements published in patent US20170212981A1, “METHODS FOR SCREENING THERAPEUTIC AGENT FOR PROTEIN CONFORMATIONAL DISEASES” (SOOKMYUNG WOMEN'S UNIVERSITY INDUSTRY ACADEMIC COOPERATION …, priority 2016, published 2017).
Like-named read-outs stand apart in the source and are kept apart here.

What was measured:
Aβ oligomers = biological target: T1, Aβ oligomers (Homo sapiens, UniProt P05067); assay: Saturation assay, apparent binding constant for Aβ oligomers; settings: Aβ oligomers 20 μM, λex=530 nm
T1 construct: Preformed oligomers were prepared by Aβ1-40 peptide solubilized in borate-buffered saline; purchased American Peptide Co. (Sunnyvale, Calif.); host or cells: chemical synthesis, then cross-linked in house with glutaraldehyde
T1 sequence (P05067 672-711 limits assumed): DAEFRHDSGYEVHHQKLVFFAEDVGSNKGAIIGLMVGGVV
Experimental: FIG. 7 depicts BD-Oligo binding constant (Aβ oligomers: 20 μM, λex=530 nm), F is the fluorescence intensity of BD-Oligo at 580 nm after binding with Aβ oligomers; and F0 is the fluorescence intensity of BD-Oligo at 580 nm before binding with Aβ oligomers.
To quantify the affinity of BDOligo for Aβ oligomers, we measured the apparent binding constant (Kd) of BD-Oligo by conducting a saturation assay.

[1] = tested on: APP/PS1 transgenic (Tg) AD model mice; assay: Ex vivo imaging of brains after ip injection; format: in vivo
Experimental: For ex vivo imaging, a stock solution of BD-Oligo was made at 10 mM in 100% DMSO.
Eighteen month old APP/PS 1 transgenic (Tg) AD model mice were given intraperitoneal (ip) injections with either 1.25 μL of BD-Oligo diluted in 500 μL of saline (n=2) or 500 μL of saline alone (n=2). APP/PS 1 Tg mice develop amyloid plaques from 4 months of age. Mice were anesthetized with an overdose of sodium pentobarbital and perfused 0.1 M PBS, pH 7.4. Brains were removed 24 h after the ip injection and fixed by immersion in periodate-lysine-paraformaldehyde for 24 h, cryo-protected in 30% sucrose for 3 days, and sectioned into 40 μm coronal sections using a cryostat. Brain sections from the BD-Oligoinjected mouse and the control APP/PS 1 mouse that received a saline alone injection were then stained for Aβ using fluorescent immunohistochemistry. Briefly, free floating sections were incubated with MOM blocking reagent (Vector) followed by an overnight incubation at 4° C. with anti-Aβ antibodies 4G8 and 6E10 diluted in MOM protein concentrate (Vector), as the present inventors previously published. Sections were then incubated with a 488 conjugated secondary antibody (Jackson Immunoresearch) for 2 h at room temperature, mounted onto slides, and cover slipped. Staining was visualized using a LMD6500 fluorescent microscope (Leica); 6E10/4G8 staining was imaged using in the green (488) channel, and BD-Oligo was imaged in the red (561) channel.

Aβ1-40 = biological target: T2, Aβ1-40 (Homo sapiens, UniProt P05067); assay: Time-dependent fibril formation monitored by dye fluorescence; format: binding; settings: Aβ1-40 at 37° C. with shaking; aliquots added to dye
T2 construct: Synthetic Aβ1-40 was purchased from American Peptide Co; purchased American Peptide Co. (Sunnyvale, Calif.); host or cells: chemical synthesis
T2 sequence (P05067 672-711 limits assumed): as above
Experimental: For monitoring of fibril formation over time, 40 µM peptide solution of Aβ1-40 was prepared as above and incubated at 37° C. with 5 s shaking at every 7 min interval. Fluorescence readings were taken at various time point intervals by mixing a 30 μL aliquot of peptide solution to […]. ThT signal was monitored at 480 nm by 444 nm excitation, whereas BD-Oligo was excited at 530 nm and its emission detected at 585 nm. Fluorescence was measured using a SpectraMax M2 spectrophotometer (Molecular Devices, Sunnyvale, Calif.). Aβ1-40 was also coincubated with dye to study any effects the dye may have on fibril formation.

[2] = biological target: T3, Aβ1-40 monomers, oligomers, fibrils (Homo sapiens, UniProt P05067); assay: Emission of dye incubated with preformed Aβ monomers, oligomers and fibrils; format: binding; settings: Aβ 20 μM
T3 construct: Synthetic Aβ1-40 was purchased from American Peptide Co; purchased American Peptide Co. (Sunnyvale, Calif.); host or cells: chemical synthesis
T3 sequence (P05067 672-711 limits assumed): as above
Experimental: Synthetic Aβ1-40 was purchased from American Peptide Co. (Sunnyvale, Calif.) in lyophilized form. Dry peptide was dissolved in 1,1,1,3,3,3-hexafluoro-2-isopropanol (HFIP) and incubated at 25° C. for 1 h to remove any preformed aggregates. It was aliquoted into small aliquots and dried using a speed-vac. The dry peptide was stored at −20° C. until required, where each aliquot was then dissolved in 5 M GuHCl 10 mM Tris.Cl pH 8 to 1 mM peptide solution. After sonication in a sonicating water bath for 15 min, the solution was diluted with phosphate-buffered saline (PBS), pH 7.4, and stored on ice until use. This freshly prepared sample is referred to as monomer. To form fibrils, 100 μM sample is incubated for 24 h at 37° C. with 5 s shaking at a 7 min interval. […] Prior to fluorescence assays, it is resolubilized in deionized distilled water and diluted in PBS. […]
HPLC-MS was taken on an Agilent-1200 with a DAD detector and a single quadrupole mass spectrometer (6130 series). […] Spectroscopic and quantum yield data were measured on a SpectraMax M2 spectrophotometer (Molecular Devices). Compounds in solvent (100 μL) in 96-well polypropylene plates was for fluorescence measurement. […] 1H-NMR and 13C-NMR spectra were recorded on Bruker AMX500 (500 MHz) spectrometers, and chemical shifts are expressed in parts per million (ppm) and coupling constants are reported as a J value in Hertz (Hz).

Row | Compound | Bmax, best-fit value (Aβ oligomers; detailed statistics of the saturation fit) | Kd (Aβ oligomers; detailed statistics of the saturation fit, read-out: Kd, best-fit value) [nM] | Kd (Aβ oligomers; saturation assay, Scatchard plot, emission 580 nm, read-out: apparent binding constant (Kd) for Aβ oligomers) [nM] | toxicity associated with in vivo injection ([1]; 18 month old APP/PS1 Tg mice) | blood-brain barrier penetration ([1]; 18 month old APP/PS1 Tg mice, brains removed after 24 h) | labeling of brain tissue ([1]; brain sections 24 h later, co-stained with anti-Aβ 6E10/4G8) | incubation time at maximum fluorescence during Aβ fibril formation (Aβ1-40) | fluorescence enhancement with Aβ monomers, oligomers, fibrils ([2]; λex=530 nm) | fluorescence response to Aβ monomers, oligomers, fibrils ([2]; λex=440 nm, dye 5 μM)
1 | CCOc1cccc(C=Cc2cc(C)c3n2[B-](F)(F)[N+]2=C(CCC(=O)OCC(Cl)(Cl)Cl)C=CC2=C3)c1O [BD-Oligo] | 7.886 | 482 | 480 | no apparent toxicity | able to cross the BBB | fluorescent labeling of AD brain tissue | about 1 day | highest fluorescence enhancement is observed upon incubation with Aβ oligomers | 
2 | Cc1ccc2c(c1)sc(-c1ccc(N(C)C)cc1)[n+]2C.[Cl-] [ThT, Thioflavin T, reference compound] |  |  |  |  |  |  | about 1 day |  | increasing order of freshly prepared Aβ monomers, followed by oligomer and fibrils
